What is called inhibition in vivo is the drop in the measured response relative to a control, in per cent. A high value points to a response far below the control. One may read the IC50 as the concentration at which inhibition is half-maximal. Read a high IC50 as weaker potency.

Results on 23 compounds are retold here after patent US9676714B2, “Sulfonylindole derivatives and method for preparing the same” (Daewoong Pharmaceutical Co., Ltd., priority 2013, dated 2017).

Each structure is given as a SMILES string. Counter-ions that a name gives are not always drawn.

Assay [1] deals with basal gastric acid secretion. Description: Inhibitory effect on the basal gastric acid secretion in pylorus-ligated rats (Shay's rat model). Format: in vivo, Sprague Dawley (SD) rats. Particulars: 5 h, male SD rats, 3 mg/kg/2 ml into the duodenum, five hours after the ligation, total gastric acid secretion vs control group. As for the experimental part: 3) Inhibitory Effect on the Basal Gastric Acid Secretion in Pylorus-Ligated Rats
Assays for determining inhibitory effect of the compounds of the present invention on the basal gastric acid secretion was performed according to Shay's rat model (Shay, H., et al., 1945, gastroenterology, 5, p. 43-61). Male Sprague Dawley (SD) rats with a body weight in the range of 180˜220 g were divided into test (n=5) and control groups (n=5), and fasted for 18 hours with free access to water. Under isoflurane anesthesia, the abdomens of the rats were incised and then the pylorus was ligated. After the ligation, the control groups were administered with only 10% ethanol, 20% polyethylene glycol (PEG) 400, and 10% aqueous Cremophor solution through the duodenum, and the other groups were administered with test compounds suspended in 10% ethanol, 20% PEG 400, and 10% aqueous Cremophor solution at a concentration of 3 mg/kg/2 ml into the duodenum. Five hours after the ligation, the experimental animals were euthanized and their stomach contents were collected. The thus obtained contents were centrifuged at 4,000×g for 10 minutes, and the supernatant was recovered to obtain gastric juice therefrom. The amount of the gastric juice and its pH were measured. The acidity of the gastric juice was determined by 0.1 N-NaOH volume (ueq/mL) for automatic titration of gastric acid to pH 7.0. The total acid output was obtained by multiplying the gastric acidity by the amount of gastric juice. Inhibition Activity (%) of Test Compounds=(total gastric acid secretion in control group−total gastric acid secretion in groups treated with test compounds)/total gastric acid secretion in control group×100

Assay [2] has as its target T1, proton pump (H+/K+-ATPase) (Sus scrofa, UniProt P19156).
T1 construct: Gastric vesicles were prepared from hog stomach via centrifugal separation; from tissue; host or cells: hog stomach (gastric vesicles, method of Rabon et al. 1988)
Description: Measurement of inhibitory effects on proton pump (H+/K+-ATPase) activities. The assay is classed as biochemical. To be noted: hog gastric vesicles, K+-specific H+/K+-ATPase activity, Tris-HCl buffer pH 7.4, 37° C. for 40 minutes, malachite green Pi readout. Summed up:
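Hog gastric vesicles in 60 mmol/l Tris-HCl pH 7.4 with 0.5% DMSO were treated with compounds at room temperature; reaction was started with 10 μl of 10 mmol/l ATP stock. Released Pi was read at 570 nm, K+-specific activity taken as the ±K+ difference. IC50 from 4-parameter logistic fit.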

T1 sequence (P19156 whole entry): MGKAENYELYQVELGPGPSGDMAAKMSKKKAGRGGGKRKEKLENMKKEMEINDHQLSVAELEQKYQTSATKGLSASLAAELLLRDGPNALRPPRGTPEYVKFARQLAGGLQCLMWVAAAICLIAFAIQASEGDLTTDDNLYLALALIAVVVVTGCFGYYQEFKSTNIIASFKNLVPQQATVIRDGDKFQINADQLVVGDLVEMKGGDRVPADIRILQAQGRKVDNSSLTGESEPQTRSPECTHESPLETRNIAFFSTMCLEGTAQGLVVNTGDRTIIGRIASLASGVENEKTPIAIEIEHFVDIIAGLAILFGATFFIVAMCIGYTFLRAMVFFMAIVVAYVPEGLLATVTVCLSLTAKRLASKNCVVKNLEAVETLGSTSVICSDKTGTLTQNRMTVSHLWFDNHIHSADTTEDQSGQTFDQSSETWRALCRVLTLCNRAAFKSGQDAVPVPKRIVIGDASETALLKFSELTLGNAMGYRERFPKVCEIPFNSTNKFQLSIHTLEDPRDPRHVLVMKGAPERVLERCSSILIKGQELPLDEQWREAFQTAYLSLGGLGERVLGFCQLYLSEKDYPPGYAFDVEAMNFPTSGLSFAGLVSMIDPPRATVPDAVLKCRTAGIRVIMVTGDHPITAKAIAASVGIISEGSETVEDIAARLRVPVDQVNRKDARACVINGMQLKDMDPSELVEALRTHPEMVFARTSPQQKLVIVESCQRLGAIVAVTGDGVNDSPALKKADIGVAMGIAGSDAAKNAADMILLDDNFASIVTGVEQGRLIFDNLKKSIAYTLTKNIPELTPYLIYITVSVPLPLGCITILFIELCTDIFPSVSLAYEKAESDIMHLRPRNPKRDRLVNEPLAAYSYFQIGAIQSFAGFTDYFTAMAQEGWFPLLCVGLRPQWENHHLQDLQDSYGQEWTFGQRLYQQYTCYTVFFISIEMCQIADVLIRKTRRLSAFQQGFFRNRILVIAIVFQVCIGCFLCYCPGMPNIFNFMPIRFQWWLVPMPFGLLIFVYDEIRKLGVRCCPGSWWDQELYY
T1 sequence (P18434 whole entry partner): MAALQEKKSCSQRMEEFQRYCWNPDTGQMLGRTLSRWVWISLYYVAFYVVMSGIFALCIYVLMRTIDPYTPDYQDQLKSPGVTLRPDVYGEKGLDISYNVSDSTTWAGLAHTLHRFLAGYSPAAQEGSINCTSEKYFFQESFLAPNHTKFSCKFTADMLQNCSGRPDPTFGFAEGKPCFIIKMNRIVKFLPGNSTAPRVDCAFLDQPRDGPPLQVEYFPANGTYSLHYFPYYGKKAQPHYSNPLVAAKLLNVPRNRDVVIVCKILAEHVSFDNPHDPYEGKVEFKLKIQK

`CNCc1cn(S(=O)(=O)c2cccnc2)c2cc(Nc3ccc(OC(F)(F)F)cc3OC)ccc12` [Example 56, N-(2-methoxy-4-(trifluoromethoxy)phenyl)-3-((methylamino)methyl)-1-(pyridin-3-ylsulfonyl)-1H-indol-6-amine hydrochloride] yielded an inhibition in vivo at 3 mg/kg in assay [1] of 82%. In addition, the IC50 in assay [2] was determined as 460 nM.
For `CNCc1cn(S(=O)(=O)c2cccnc2)c2cc(Nc3ccc(C)c(F)c3F)ccc12` [Example 65, N-(2,3-difluoro-4-methylphenyl)-3-((methylamino)methyl)-1-(pyridin-3-ylsulfonyl)-1H-indol-6-amine hydrochloride] the same measures were 42% and 310 nM.
The like results for `CNCc1cn(S(=O)(=O)c2cccnc2)c2cc(Nc3cc(F)c(C)cc3F)ccc12` [Example 72, N-(2,5-difluoro-4-methylphenyl)-3-((methylamino)methyl)-1-(pyridin-3-ylsulfonyl)-1H-indol-6-amine hydrochloride] were, in that order, 49% and 610 nM.
Consider `CNCc1cn(S(=O)(=O)c2cccnc2)c2cc(Nc3cccnc3OC)ccc12` [Example 108, N-(2-methoxypyridin-3-yl)-3-((methylamino)methyl)-1-(pyridin-3-ylsulfonyl)-1H-indol-6-amine hydrochloride], for which the inhibition in vivo at 3 mg/kg in assay [1] is 49%. Moreover, the IC50 in assay [2] was 1590 nM.
For `CNCc1cn(S(=O)(=O)c2cccnc2)c2cc(Nc3ccc(Cl)nc3OC)ccc12` [Example 120, N-(6-chloro-2-methoxypyridin-3-yl)-3-((methylamino)methyl)-1-(pyridin-3-ylsulfonyl)-1H-indol-6-amine hydrochloride] the same measures were 46% and 420 nM.
For `CNCc1cn(S(=O)(=O)c2cccnc2)c2cc(Nc3ccc(OC)nc3Cl)ccc12` [Example 123, N-(2-chloro-6-methoxypyridin-3-yl)-3-((methylamino)methyl)-1-(pyridin-3-ylsulfonyl)-1H-indol-6-amine hydrochloride] the same measures were 40% and 350 nM.
The like results for `CNCc1cn(S(=O)(=O)c2cccnc2)c2cc(Nc3ccc(C(F)(F)F)nc3Cl)ccc12` [Example 125, N-(2-chloro-6-(trifluoromethyl)pyridin-3-yl)-3-((methylamino)methyl)-1-(pyridin-3-ylsulfonyl)-1H-indol-6-amine hydrochloride] were, in that order, 45% and 1060 nM.
`CNCc1cn(S(=O)(=O)c2cccnc2)c2cc(Nc3ccnc(Cl)c3Br)ccc12` [Example 133, N-(3-bromo-2-chloropyridin-4-yl)-3-((methylamino)methyl)-1-(pyridin-3-ylsulfonyl)-1H-indol-6-amine hydrochloride] had an inhibition in vivo at 3 mg/kg in assay [1] of 40%. Moreover, in assay [2], the IC50 is 770 nM.
The like results for `CNCc1cn(S(=O)(=O)c2cccc(F)c2)c2cc(Nc3ccc(F)cc3C)ccc12` [Example 138, N-(4-fluoro-2-methylphenyl)-1-((3-fluorophenyl)sulfonyl)-3-((methylamino)methyl)-1H-indol-6-amine hydrochloride] were, in that order, 55% and 120 nM.
Turning to `CNCc1cn(S(=O)(=O)c2cccc(F)c2)c2cc(Nc3ccc(OC)cc3F)ccc12` [Example 139, N-(2-fluoro-4-methoxyphenyl)-1-((3-fluorophenyl)sulfonyl)-3-((methylamino)methyl)-1H-indol-6-amine hydrochloride], the inhibition in vivo at 3 mg/kg in assay [1] came to 40%. This compound yielded an IC50 in assay [2] of 180 nM.
The like results for `CNCc1cn(S(=O)(=O)c2cccc(F)c2)c2cc(Nc3ccc(Cl)nc3OC)ccc12` [Example 141, N-(6-chloro-2-methoxypyridin-3-yl)-1-((3-fluorophenyl)sulfonyl)-3-((methylamino)methyl)-1H-indol-6-amine hydrochloride] were, in that order, 51% and 390 nM.
The like results for `CNCc1cn(S(=O)(=O)c2cccc(F)c2)c2cc(Nc3ccc(Cl)nc3Cl)ccc12` [Example 142, N-(2,6-dichloropyridin-3-yl)-1-((3-fluorophenyl)sulfonyl)-3-((methylamino)methyl)-1H-indol-6-amine hydrochloride] were, in that order, 42% and 120 nM.
`CNCc1cn(S(=O)(=O)c2cccc(F)c2)c2cc(Nc3ccc(Cl)nc3C(F)(F)F)ccc12` [Example 143, N-(6-chloro-2-(trifluoromethyl)pyridin-3-yl)-1-((3-fluorophenyl)sulfonyl)-3-((methylamino)methyl)-1H-indol-6-amine hydrochloride] had an inhibition in vivo at 3 mg/kg in assay [1] of 53%. Further, in assay [2], the IC50 amounted to 290 nM.
The like results for `CNCc1cn(S(=O)(=O)c2cccc(F)c2)c2cc(Nc3ccc(OC)nc3Cl)ccc12` [Example 144, N-(2-chloro-6-methoxypyridin-3-yl)-1-((3-fluorophenyl)sulfonyl)-3-((methylamino)methyl)-1H-indol-6-amine hydrochloride] were, in that order, 53% and 380 nM.
`CNCc1cn(S(=O)(=O)c2cccc(F)c2)c2cc(Nc3ccc(C(F)(F)F)nc3Cl)ccc12` [Example 145, N-(2-chloro-6-(trifluoromethyl)pyridin-3-yl)-1-((3-fluorophenyl)sulfonyl)-3-((methylamino)methyl)-1H-indol-6-amine hydrochloride] displayed an inhibition in vivo at 3 mg/kg in assay [1] of 45%. The compound also had an IC50 in assay [2] of 170 nM.
The like results for `CNCc1cn(S(=O)(=O)c2cccc(Cl)c2)c2cc(Nc3ccc(C)cc3OC(F)(F)F)ccc12` [Example 148, 1-((3-chlorophenyl)sulfonyl)-N-(4-methyl-2-(trifluoromethoxy)phenyl)-3-((methylamino)methyl)-1H-indol-6-amine hydrochloride] were, in that order, 45% and 10 nM.
For `CNCc1cn(S(=O)(=O)c2cccc(Cl)c2)c2cc(Nc3ccc(OC)cc3F)ccc12` [Example 153, 1-((3-chlorophenyl)sulfonyl)-N-(2-fluoro-4-methoxyphenyl)-3-((methylamino)methyl)-1H-indol-6-amine hydrochloride] the same measures were 42% and 260 nM.
On to `CNCc1cn(S(=O)(=O)c2cccc(Cl)c2)c2cc(Nc3ccc(OC)nc3Cl)ccc12` [Example 160, N-(2-chloro-6-methoxypyridin-3-yl)-1-((3-chlorophenyl)sulfonyl)-3-((methylamino)methyl)-1H-indol-6-amine hydrochloride], for which, in assay [1], 3 mg/kg produced 57% inhibition in vivo. Also, the IC50 in assay [2] was determined as 290 nM.
For `CNCc1cn(S(=O)(=O)c2cccc(OC(F)F)c2)c2cc(Nc3ccc(OC)nc3Cl)ccc12` [Example 182, N-(2-chloro-6-methoxypyridin-3-yl)-1-((3-(difluoromethoxy)phenyl)sulfonyl)-3-((methylamino)methyl)-1H-indol-6-amine hydrochloride] the same measures were 44% and 390 nM.
The like results for `CNCc1cn(S(=O)(=O)c2cncc(F)c2)c2cc(Nc3ccc(C)cc3F)ccc12` [Example 210, N-(2-fluoro-4-methylphenyl)-1-((5-fluoropyridin-3-yl)sulfonyl)-3-((methylamino)methyl)-1H-indol-6-amine hydrochloride] were, in that order, 43% and 370 nM.
Consider `CNCc1cn(S(=O)(=O)c2cncc(F)c2)c2cc(Nc3ccc(C)cc3Cl)ccc12` [Example 211, N-(2-chloro-4-methylphenyl)-1-((5-fluoropyridin-3-yl)sulfonyl)-3-((methylamino)methyl)-1H-indol-6-amine hydrochloride], for which the inhibition in vivo at 3 mg/kg in assay [1] was found to be 43%. Besides, the concentration for half-maximal inhibition (IC50) in assay [2] is 90 nM.
The like results for `CNCc1cn(S(=O)(=O)c2cncc(F)c2)c2cc(Nc3ccc(F)cc3C)ccc12` [Example 212, N-(4-fluoro-2-methylphenyl)-1-((5-fluoropyridin-3-yl)sulfonyl)-3-((methylamino)methyl)-1H-indol-6-amine hydrochloride] were, in that order, 56% and 180 nM.
For `CNCc1cn(S(=O)(=O)c2cncc(F)c2)c2cc(Nc3ccc(F)cc3Cl)ccc12` [Example 213, N-(2-chloro-4-fluorophenyl)-1-((5-fluoropyridin-3-yl)sulfonyl)-3-((methylamino)methyl)-1H-indol-6-amine hydrochloride] the same measures were 50% and 160 nM.
